Reference: patent publication US20240358671A1, “COMPOSITIONS AND METHODS TO TREAT SKIN DISORDERS” (THE TRUSTEES OF INDIANA UNIVERSITY, priority 2021, published 2024)
“Also recorded” adds a separate entry of the source.

Legend:
PPARδ [1] = experiment: PPARδ trans-activity assay; type: cell-based; details: human keratinocytes; 5 μmol long chain ceramides, 48 h
Description: Human keratinocytes cells were treated with 5 μmol of long chain ceramides, C18:0 and C24:0 (Avanti Polar Lipids Inc., Alabama) using Lipofectamine LTX (Thermo Fisher Scientific). Cells were collected 48 h post transfection and nuclear protein was extracted using Nuclear Extraction Kit (RayBiotech) as per manufacturer's protocol. PPARδ trans-activity was measured using PPAR delta Transcription Factor Assay Kit (abcam) as per manufacturer's instructions.

PPARδ promoter = PPARδ promoter assay; type: cell-based; details: human keratinocytes; PPARδ promoter reporter; 5 μmol long chain ceramides, 48 h
Description: PPARδ promoter assay was done as described previously. mNP-Luc (PPARdelta promoter) was a gift (Addgene plasmid #16532; http://n2t.net/addgene:16532; RRID:Addgene_16532. Human keratinocytes cells were co-transfected with the PPARδ promoter reporter construct and treated with 5 μmol of long chain ceramides, C:18 and C:24 (Avanti Polar Lipids Inc., Alabama) using Lipofectamine™ LTX Reagent with PLUS™ Reagent (Thermo Fisher Scientific). Media were collected 48 h post transfection and the secreted GLuc and SEAP activities were measured with the Secrete-Pair Dual Luminescence Assay Kit (GeneCopoeia) according to the manufacturer's protocol using the Berthold Luminometer (Berthold Technologies). Normalized promoter activity has been presented as the ratio of GLuc to SEAP activities.

Human keratinocytes (HK) = experiment: Human keratinocytes-Pseudomonas biofilm co-culture conditioned media: keratinocyte ceramide by anti-ceramide immunostaining; type: cell-based; details: HK treated with conditioned media (25% v/v) of cells co-cultured with PA biofilm containing ceramidastin 10 μg/ml, 24 h
Excerpt: FIGS. 7A-7U relate to ceramide depletion and ceramidastin rescue. FIGS. 7A-7S: Ceramide depletion, as measured by LC-MS/MS, in cutaneous lipids. Following exposure to bacteria as applicable, lipids were extracted and analyzed via a targeted approach. Data thus obtained were subjected to analysis by ANOVA using R3.5.3 to specifically identify those lipids with significant differences between the three groups. Those with significance as tested by ANOVA were subjected to post hoc analysis using Tukey-HSD with a FDR cutoff of 0.05. Lipids with group differences that passed these thresholds were illustrated as box plots. Skin ceramides have been denoted using the standard nomenclature following the format of fatty acyl type, sphingoid backbone type, and sphingoid backbone length-fatty acyl length. […]
(§1) OCT embedded wound tissue blocks were sectioned using a cryostat. […] To enable fluorescence detection, sections were incubated with appropriate Alexa Fluor® 488 (green, Molecular probes), Alexa Fluor® […] (red, Molecular probes) conjugated secondary antibodies. […] Mosaic images were collected using collected using a Zeiss Axiovert 200 M, inverted fluorescence microscopy or confocal microscopy (LSM880). Image analysis was performed using Zen (Zeiss) software to quantitate fluorescence intensity (fluorescent pixels).

ABCA12 = ABCA12 in human keratinocytes after PAwt biofilm infection; type: cell-based
Description: (§2) Bacterial biofilms were co-cultured with human keratinocytes cells following the method adapted from Anderson. The confluent cultures of human keratinocytes cells were inoculated with bacterial cultures of PAwt or PAΔcer (10^5 CFU/ml) in antibiotic free culture media. The plates were incubated for 1 h at 37° C. and 5% CO2. Post 1 h, fresh DMEM (without antibiotics) supplemented with 0.4% arginine was added to the plate. Post 7-8 hours, cells were harvested. The co-culture media was filtered using 0.2 μm filters and used for ceramidastin experiment. Human keratinocytes were treated with conditioned media (25% v/v) of cells co-cultured with PAwt biofilm containing ceramidastin (10 μg/ml) for 24 h.
as §1

PA bcdase = molecular target: T1, PA bcdase (Pseudomonas aeruginosa, UniProt Q9I596); experiment: Ex vivo extracted skin lipids treated with biofilm-conditioned media, ceramides by LC-MS/MS; type: biochemical; details: conditioned media contained ceramidastin
T1 construct: cutaneous lipids exposed to biofilm-infected keratinocyte conditioned media (CM); endogenous in cells; host or cells: Wild-type Pseudomonas aeruginosa (PAwt) biofilm co-cultured with human keratinocytes; the conditioned medium holds the enzyme
Description: FIGS. 8A-8N illustrate ceramide depletion. FIGS. 8A-8L Ceramide depletion, as measured by LC-MS/MS, in cutaneous lipids exposed to biofilm-infected keratinocyte conditioned media (CM). As indicated, to test the significance of PA bcdase, the CM contained ceramidastin (CST). Lipids were extracted and analyzed using an untargeted approach as described in Materials and Methods. The resultant data were analyzed using R 3.3. Wilcoxon Rank-Sum test was used for all group analyses and Kruskal-Wallis followed by Benjamini Hochberg correction was performed for multiple comparisons with significance at p<0.05. Skin ceramides have been denoted using the standard nomenclature following the format of fatty acyl type, sphingoid backbone type, and sphingoid backbone length-fatty acyl length. NS=Cer 2 (with non-hydroxy fatty acid, sphingoid backbone); NP=Cer 3 (non-hydroxy fatty acid, phytopshingoid backbone); NH=Cer 8 (non-hydroxy fatty acid, 6-hydroxy sphingoid backbone); NDS=Cer 10 (non-hydroxy fatty acid, dihydroxy sphingoid backbone); AS=Cer 5 (α-hydroxy fatty acid, sphingoid backbone); AP=Cer 6 (α-hydroxy fatty acid, phytosphingoid backbone). The Y-axis values are in mol %. (M) Digital wound images and planimetry shown. […]
Untargeted lipidomics was undertaken as previously published. […] Finally, lipids were analyzed via the use of MS/MSALL approach as previously disclosed. […]

PPARδ [2] = experiment: PPARδ expression in human keratinocyte biofilm infection; type: cell-based; details: in the presence of ceramidastin
Description: as §2
Western blot was performed using antibodies against anti-PPARδ (Thermo Scientific, 1:500), anti-CerS3 (Origene, 1:500). β-actin (Sigma Aldrich, 1:5000) was used as housekeeping.

CerS3 = CerS3 expression in human keratinocytes treated with PPARδ agonist or antagonist, qPCR; type: cell-based; details: 1 μmol/ml
Excerpt: FIGS. 11A-11O illustrate additional experimental results. FIG. 11A: Vector map of PPARδ promoter luciferase reporter. FIGS. 11B-11C: PPARδ drives CerS3 expression. CerS3 expression in human keratinocytes (HK) treated with PPARδ agonist (GW501516, 1 μmol/ml) or antagonist (GSK0660, 1 μmol/ml) as measured by qPCR. Data presented as mean±SEM (n=5). FIGS. 11D-11F: Upregulation of DNA methyl transferases in S-1-P treated HK. Data presented as mean±SEM (n=8). FIGS. 11G-11J: Induction of histone deacetylases in S-1P treated HK. Data presented as mean±SEM (n=8). FIGS. 11K-11N) Other histone deacetylases in S-1P treated HK. […] Data presented as mean±SEM, (n=8). FIG. 11O: miR-106b expression in HK treated with S-1-P (5 μmol/ml). Data presented as mean±SEM (n=8).

P. aeruginosa = details: cited from earlier work
Streptococcus pyogenes = details: cited from earlier work
[3] = test system: Staphylococcus epidermidis; details: cited from earlier work
S. aureus = details: cited from earlier work
[4] = test system: Staphylococcus epidermidis biofilm; details: cited from earlier work
Micrococcus luteus = details: cited from earlier work
Propionibacterium acnes = details: cited from earlier work

T1 sequence (Q9I596 25-670): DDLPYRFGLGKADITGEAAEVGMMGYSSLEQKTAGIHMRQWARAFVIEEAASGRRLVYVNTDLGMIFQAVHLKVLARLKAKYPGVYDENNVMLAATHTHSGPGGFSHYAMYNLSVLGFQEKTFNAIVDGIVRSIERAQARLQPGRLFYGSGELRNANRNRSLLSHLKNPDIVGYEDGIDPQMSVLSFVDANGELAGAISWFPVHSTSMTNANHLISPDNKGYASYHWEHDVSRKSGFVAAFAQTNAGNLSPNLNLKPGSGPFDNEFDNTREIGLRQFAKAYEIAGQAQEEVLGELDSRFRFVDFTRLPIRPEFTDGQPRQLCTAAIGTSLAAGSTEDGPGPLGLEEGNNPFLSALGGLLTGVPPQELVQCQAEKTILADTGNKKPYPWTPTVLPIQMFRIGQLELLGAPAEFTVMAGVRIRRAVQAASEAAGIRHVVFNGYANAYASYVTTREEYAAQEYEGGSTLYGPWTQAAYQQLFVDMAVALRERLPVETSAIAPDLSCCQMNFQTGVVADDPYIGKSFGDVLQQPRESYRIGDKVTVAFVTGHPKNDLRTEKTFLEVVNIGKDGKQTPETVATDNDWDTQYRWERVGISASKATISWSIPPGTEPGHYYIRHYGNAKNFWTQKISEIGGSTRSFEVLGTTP

In the case of CCCCCCCCCCCCC/C=C/[C@@H](O)[C@H](CO)NC(=O)CCCCCCCCCCCCCCCCC [C18], the PPARδ transactivation (PPARδ [1]) was “induced” and the PPARδ transcription (PPARδ promoter) was “induced”.
For CCCCCCCCCCCCC/C=C/[C@@H](O)[C@H](CO)NC(=O)CCCCCCCCCCCCCCCCCCCCCCC [C24], the PPARδ transactivation (PPARδ [1]) was “induced” and the PPARδ transcription (PPARδ promoter) was “induced”.
In the case of CCCCCCC(O)C1C2=C(CC(C(O)C(O)C/C=C/CO)CC3=C(C(=O)OC3=O)C1O)C(=O)OC2=O (centres unmarked) [Ceramidastin], the “keratinocyte ceramide after PAwt biofilm infection” value (Human keratinocytes (HK)) was “rescued keratinocyte ceramide against loss; also recorded: rescued depletion of keratinocyte ceramide”, the “loss of ABCA12 in response to biofilm infection by PAwt” value (ABCA12) was “prevented” and the “ceramides in extracted skin lipids treated with biofilm-conditioned media” value (PA bcdase) was “rescue of ceramides”. The “PPARδ expression blunted by biofilm infection” value (PPARδ [2]) was “rescued”.
In the case of COC(=O)c1sccc1S(=O)(=O)Nc1ccc(Nc2ccccc2)cc1OC [GSK0660], the CerS3 expression (CerS3) was “blunted the expression of CerS3”.
In the case of Cc1cc(SCc2sc(-c3ccc(C(F)(F)F)cc3)nc2C)ccc1OCC(=O)O [GW501516], the CerS3 expression (CerS3) was “increased expression of CerS3”.
In the case of CCCCCCCCCCCCC/C=C/[C@@H](O)[C@@H](N)CO [Sphingosine], the “killing of P. aeruginosa” value (P. aeruginosa) is given as “moderately killed”, the “killing of Streptococcus pyogenes” value (Streptococcus pyogenes) is given as “effectively killed” and the “killing of Staphylococcus epidermidis” value [3] is given as “effectively killed”. The “killing of S. aureus” value (S. aureus) was “effectively killed”, the “Staphylococcus epidermidis biofilm on orthopedic implant materials” value [4] was “prevented and eliminated” and the “killing of Micrococcus luteus” value (Micrococcus luteus) was “effectively killed”. For the same compound, the “killing of Propionibacterium acnes” value (Propionibacterium acnes) was “effectively killed”.
